Here are results for six molecules from US20230390235A1, “THERAPEUTIC AGENT FOR COVID-19” (priority 2020, published 2023).

pIC50: −log10 of the molar value. Where two headings read alike, the source gives them in different places.

Data set [1] relates to SARS-CoV-2 virus (USA_WA1/2020). Description: microbe, parasite or virus in culture. It is filed as cell-based.
The nature of another data set: in vivo. Further details: species or system S.D. rats. As to conditions: male, S.D., rat, po. The procedure:
Male S.D. rats weighing 160 to 210 g were used for the examination of SJA-6017. Each animal was kept in a room at a temperature of 23±2° C., a humidity of 55±10%, with lighting for 12 hours, and a ventilation frequency of 15 times/hour or more. The rats were fasted from the night before administration and feeding was resumed immediately after the administration. Water was taken freely.
(§1) For the examination of SNJ-1945, four groups of 1, 3, 10, and 30 mg/kg (n=3 for each) were set. For the examination of SJA-6017, two groups of 100 mg/kg (n=3 for each) and 500 mg/kg (n=8 for each) were set.
For SJA-6017, sodium carboxymethylcellulose was dissolved in distilled water to a concentration of 0.5% (w/v). A test substance was suspended in the resultant to prepare samples having concentrations of 10% (for […]) and 2% (for 100 mg/kg).
(§2) SNJ-1945 was orally administered forcibly a single time by using a gastric sonde at doses of 1, 3, 10, and 30 mg/4 mL/kg. SJA-6017 was orally administered forcibly a single time using a gastric sonde at a dose of 5 mL/kg.
In the SJA-6017 administration group, blood samples were collected from the abdominal aorta under ether anesthesia 30 minutes and 1, 2, 4 and 8 hours after administration. The resulting blood was immediately centrifuged at 5,000 rpm for 10 minutes, and plasma was collected.
Plasma (200 μL) obtained from the SJA-6017 administration group was placed in a brown Spitz tube, and 0.01 M HCl (0.5 mL) was added thereto, and diethyl ether (3 mL) was further added, followed by shaking for 10 minutes. Thereafter, centrifugation (3,000 rpm) for 10 minutes was performed to separate the aqueous layer from the diethyl ether phase. The lower aqueous layer alone was frozen in dry-ice acetone, and the diethyl ether layer was separated into another brown Spitz tube. Thereafter, drying was conducted under reduced pressure, and acetonitrile (100 μL) and a 0.01M hydrochloric acid solution (200 μL) of 5 mM phenylhydrazine hydrochloride were added, followed by stirring and dissolving. The solution was transferred to an HPLC vial and allowed to react for 1 hour at 40° C. using a water bath. 150 μL of this sample solution was analyzed by HPLC.
• Detector: UV absorbance spectrophotometer (measurement • wavelength: 272 nm) • Column: Capcell-pak SG-120 (250 mm) • Column temperature: 40° C. • Mobile phase: 0.02 M phosphate buffer (pH of 7.0)/acetonitrile mixture (45:55) • Flow rate: 1.0 mL/min
Cmax and AUC0-8 were calculated from the mean plasma concentration at each time point.

Data set [2] in a line: Pharmacokinetic (PK) measurement of SNJ-1945, oral, rats, LC/MS/MS. To be noted: male, S.D., rat plasma; for AUC(0-t): read-out: AUC0-8. It is filed as in vivo. The method, then: Eight-week-old male S.D. rats were used for the examination of SNJ-1945. Each animal was kept in a room at a temperature of 21.6° C. to 22.3° C., a humidity of 47.7% to 60.3%, with lighting for 12 hours/day, and a ventilation frequency of 6 to 20 times/hour. The rats were fasted from the evening of the day before administration, and feeding was resumed after the completion of blood sampling, which was conducted 8 hours after the administration. Water was taken freely.
as §1
For SNJ-1945, methylcellulose was dissolved in water for injection to a concentration of 1 w/v %. A test substance was suspended in the resultant to prepare samples having concentrations of 0.25 mg/mL (for 1 mg/kg), 0.75 mg/mL (for 3 mg/kg), 2.5 mg/mL (for 10 mg/kg), and 7.5 mg/mL (for 30 mg/kg). The administration solution was dispensed into brown glass bottles.
as §2
In the SNJ-1945 administration group, blood samples were taken over time from the subclavian vein 30 minutes and 1, 2, 4, and 8 hours after administration. The obtained blood was immediately centrifuged at 10000×g for 3 minutes, and plasma was collected.
Plasma (20 μL) obtained from the SNJ-1945 administration group was placed in a polypropylene tube, methanol (20 μL) was added thereto, and an internal standard solution (SNJ-1945-d7; 100 μL) was added thereto, followed by stirring for about 5 minutes. Thereafter, centrifugation (10,000×g) was performed for 5 minutes, and 100 μL of a supernatant was transferred to another polypropylene tube. 1 mmol/L EDTA-2K (100 μL) was added, followed by stirring for about 10 seconds. The solution was set in an autosampler and measured within 72 hours.
A Shimadzu 20AD LC System 2 (prominence UFLCXR system; Shimadzu Corporation) and a mass spectrometer (API5000; AB SCIEX) were used as measuring instruments. High-performance liquid chromatography was performed according to the following conditions. Column: CAPCELL CORE AQ, 2.7 μm, 2.1×50 mm (Shiseido Japan Co., Ltd.); column temperature: 60° C.; mobile phase A: 5 mmol/L ammonium hydrogen carbonate/l mmol/LEDTA-2K (500:1, v/v); mobile phase B: methanol; flow rate: 0.8 mL/min.
The mass spectrometer was set according to the following conditions: ionization mode: turbo ion spray; measurement mode: multiple reaction monitoring; detection mode: negative; collision gas: N2, 6 (number of valves opened); curtain gas: N2, 15 psi, ion source gas 1: air, 80 psi; ion source gas 2: air, 80 psi; ion spray voltage: −4500 V; temperature: 500° C.; channel electron multiplier: 1800 V or 2000 V. Monitoring ions and dwell time were set as shown in Table 4 below.
The measurement results of plasma concentration were analyzed by non-compartmental analysis in the pharmacokinetic analysis software Phoenix WinNonlin Ver. 6.3 (Pharsight Corporation as part of Certara), and each pharmacokinetic parameter was calculated in accordance with the method shown in Table 5 below.

The subject of data set [3] is ACE2-expressing HEK293T cells.
Data set [4] deals with SARS-CoV-2 S pseudotype virus (wild type: WT). It is filed as cell-based. As to conditions: 100 μM, ACE2-expressing HEK293T cells, GFP fluorescence, FIG. 1.
Where [5] appears, read: Severe acute respiratory syndrome coronavirus 2, Vero C1008, 72 h, read-out: CPE reduction (IC50).
[6] abbreviates: Severe acute respiratory syndrome coronavirus 2, Vero C1008, 72 h; read-out: CPE reduction (IC50).

Turning to `CCN(CC)CCCC(C)Nc1ccnc2cc(Cl)ccc12` (centres unmarked) [Chloroquine], the negative logarithm of the IC50 (pIC50) in data set [1] (setting [5]) is 5.69.
`CCOC(=O)[C@H]1O[C@@H]1C(=O)N[C@@H](CC(C)C)C(=O)NCCC(C)C` [E64d]: the negative logarithm of the IC50 (pIC50) in data set [1] (read-out: CPE reduction (IC50)) is 5.08.
In the case of `CCN(CCO)CCCC(C)Nc1ccnc2cc(Cl)ccc12` (centres unmarked) [Hydroxychloroquine], the pIC50 in data set [1] (setting [5]) was 5.19.
For the molecule `CCC(CC)COC(=O)[C@H](C)N[P@](=O)(OC[C@H]1O[C@@](C#N)(c2ccc3c(N)ncnn23)[C@H](O)[C@@H]1O)Oc1ccccc1` [Remdesivir], in data set [1] (setting [5]), the pIC50 was 4.98.
For the molecule `CC(C)C[C@@H](C=O)NC(=O)[C@@H](NS(=O)(=O)c1ccc(F)cc1)C(C)C` [SJA-6017], the pIC50 in data set [1] (setting [6]) is 6.68. In the data set “in vivo” (100 mg/kg), this molecule returned an AUC(0-t) of 679 ng·h/mL and a peak concentration (Cmax) of 284 ng/mL. Further, in the data set “in vivo” (500 mg/kg), the AUC(0-t) amounted to 1840 ng·h/mL and the maximum concentration (Cmax) was determined as 348 ng/mL.
Take `COCCOCCOC(=O)N[C@@H](CC(C)C)C(=O)N[C@@H](Cc1ccccc1)C(=O)C(=O)NC1CC1` [SNJ-1945]: the peak concentration (Cmax) was 186 ng/mL in data set [2] (single oral dose 1 mg/kg), 391 ng/mL in data set [2] (single oral dose 3 mg/kg), 553 ng/mL in data set [2] (single oral dose 10 mg/kg) and 821 ng/mL in data set [2] (single oral dose 30 mg/kg). In addition, the AUC(0-t) turned out to be 168 ng·h/mL in data set [2] (single oral dose 1 mg/kg), 380 ng·h/mL in data set [2] (single oral dose 3 mg/kg), 691 ng·h/mL in data set [2] (single oral dose 10 mg/kg) and 1170 ng·h/mL in data set [2] (single oral dose 30 mg/kg). In data set [3], the “highest concentration at which test compound did not show cytotoxicity” value is 100 µM. The pIC50 in data set [1] (setting [6]) is 5.82. For the same molecule, the “entry inhibition of pseudotype virus into cells” value in data set [4] is given as “inhibits entry”.

What is called pIC50 is −log10 of the IC50, conventionally taken in molar units. In general, Cmax refers to the peak of the concentration-time curve.
